Measurements as given in patent US9604933B2, “Pyrazolochalcones as potential anticancer agents” (COUNCIL OF SCIENTIFIC AND INDUSTRIAL RESEARCH, priority 2013, dated 2017).
Where two headings read alike, the source gives them in different places.

Experiments:
K-562 = test: NCI SRB cytotoxicity, leukemia K-562; type: cell-based; conditions: Homo sapiens, K562, 48 h exposure
Protocol: (§1) The pyrazolochalcones (7e, 8e, 10e, 11e, 12e, 13e and 8f) have been tested against fifty nine human tumor cell lines derived from nine cancer types (leukemia, non-small cell lung cancer, colon cancer, CNS cancer, melanoma, ovarian cancer, renal cancer, prostate cancer and breast cancer) as per the NCI protocol. For each compound, dose response curves for individual cell lines have been measured at a minimum of five concentrations at 10 fold dilutions. A protocol of 48 h continuous drug exposure has been used, and a sulforhodamine B (SRB) protein assay has been used to estimate cell viability or growth. The concentration for 50% cell growth inhibition (GI50), 50% cell death (LC50, 50% growth) and total cell growth inhibition (TGI, 0% growth) values were tabulated (Table-1). DMSO was used as control to calculate the values of GI50, LC50 and TGI. The compounds 7e, 8e, 10e, 11e, 12e, 13e and 8f has been evaluated for their in vitro cytotoxicity in […] cell lines from nine human cancer types of leukemia (K-562, SR), non-small cell lung (Hop-62, NCI-H226, NCI-H522), colon (HCT-116, HCT-15, HCC-2998), CNS (SF-539), melanoma (SK-MEL-5, UACC-62, M14), ovarian (IGROV1), renal (A498), prostate (PC3) and breast (BT-549, MDA-MB-435, HS578T) origin. The results are expressed as percent of cell growth determined relative to that of untreated control cells (Table 2).

RPMI-8226 = test: NCI SRB cytotoxicity, leukemia RPMI-8226; type: cell-based; conditions: Homo sapiens, 48 h exposure
Protocol: as §1

SR = test: NCI SRB cytotoxicity, leukemia SR; type: cell-based; conditions: Homo sapiens, 48 h exposure
Protocol: as §1

HOP-62 = test: NCI SRB cytotoxicity, non-small cell lung HOP-62; type: cell-based; conditions: Homo sapiens, 48 h exposure
Protocol: as §1

NCI-H23 = test: NCI SRB cytotoxicity, non-small cell lung NCI-H23; type: cell-based; conditions: Homo sapiens, 48 h exposure
Protocol: as §1

NCI-H460 = test: NCI SRB cytotoxicity, non-small cell lung NCI-H460; type: cell-based; conditions: Homo sapiens, 48 h exposure
Protocol: as §1

HCC-2998 = test: NCI SRB cytotoxicity, colon HCC-2998; type: cell-based; conditions: Homo sapiens, 48 h exposure
Protocol: as §1

HCT-15 = test: NCI SRB cytotoxicity, colon HCT-15; type: cell-based; conditions: Homo sapiens, 48 h exposure
Protocol: as §1

KM12 = test: NCI SRB cytotoxicity, colon KM12; type: cell-based; conditions: Homo sapiens, 48 h exposure
Protocol: as §1

SNB-75 = test: NCI SRB cytotoxicity, CNS SNB-75; type: cell-based; conditions: Homo sapiens, 48 h exposure
Protocol: as §1

MDA-MB-435 [1] = test: NCI SRB cytotoxicity, melanoma MDA-MB-435; type: cell-based; conditions: Homo sapiens, Melanoma panel MDA-MB-435, 48 h exposure
Protocol: as §1

SK-MEL-2 = test: NCI SRB cytotoxicity, melanoma SK-MEL-2; type: cell-based; conditions: Homo sapiens, 48 h exposure
Protocol: as §1

UACC-257 = test: NCI SRB cytotoxicity, melanoma UACC-257; type: cell-based; conditions: Homo sapiens, 48 h exposure
Protocol: as §1

IGROV1 = test: NCI SRB cytotoxicity, ovarian IGROV1; type: cell-based; conditions: Homo sapiens, IGROV-1, 48 h exposure
Protocol: as §1

OVCAR-4 = test: NCI SRB cytotoxicity, ovarian OVCAR-4; type: cell-based; conditions: Homo sapiens, 48 h exposure
Protocol: as §1

OVCAR-5 = test: NCI SRB cytotoxicity, ovarian OVCAR-5; type: cell-based; conditions: Homo sapiens, 48 h exposure
Protocol: as §1

OVCAR-8 = test: NCI SRB cytotoxicity, ovarian OVCAR-8; type: cell-based; conditions: Homo sapiens, 48 h exposure
Protocol: as §1

SK-OV-3 = test: NCI SRB cytotoxicity, ovarian SK-OV-3; type: cell-based; conditions: Homo sapiens, 48 h exposure
Protocol: as §1

786-0 = test: NCI SRB cytotoxicity, renal 786-0; type: cell-based; conditions: Homo sapiens, 48 h exposure
Protocol: as §1

MCF7 = test: NCI SRB cytotoxicity, breast MCF7; type: cell-based; conditions: Homo sapiens, 48 h exposure
Protocol: as §1

MDA-MB-231/ATCC = test: NCI SRB cytotoxicity, breast MDA-MB-231/ATCC; type: cell-based; conditions: Homo sapiens, 48 h exposure
Protocol: as §1

HS 578T = test: NCI SRB cytotoxicity, breast HS 578T; type: cell-based; conditions: Homo sapiens, 48 h exposure
Protocol: as §1

MDA-MB-435 [2] = test: NCI SRB cytotoxicity, breast panel MDA-MB-435; type: cell-based; conditions: Homo sapiens, 48 h exposure
Protocol: as §1

Non-small cell lung = test: NCI SRB cytotoxicity, non-small cell lung panel average; type: cell-based, human; conditions: average of cell lines; for LC50: read-out: Log10 LC50 (concentration in mol/L causing 50% cell death) (converted)
Protocol: as §1
(§2) Each cancer type represents the average of six to eight different cancer cell lines.

Renal = test: NCI SRB cytotoxicity, renal panel average; type: cell-based, human; conditions: average of cell lines; for CC50: read-out: Log10 LC50 (concentration in mol/L causing 50% cell death) (converted)
Protocol: as §1, §2

human tumor cell lines = test: NCI SRB cytotoxicity, all fifty nine human tumor cell lines; type: cell-based; parameters: Log10 TGI mean graph midpoint (MG_MID): unit not given here; conditions: for GI50: Homo sapiens; for cytotoxicity: against cancer cell lines, in words; for LC50: read-out: Log10 LC50 mean graph midpoint (MG_MID) (converted)
Protocol: as §1
The mean graph midpoint values of Log10 TGI and Log10 LC50 as well as Log10 GI50 for compounds 7e, 8e, 10e, 11e, 12e, 13e and 8f is listed in Table-3. […] The mean graph mid points of Log10 TGI and Log10, LC50 have shown similar pattern to the log10 GI50 mean graph mid points.

DU-145 = test: NCI SRB cytotoxicity, prostate DU-145; type: cell-based; conditions: Homo sapiens, 48 h exposure
Protocol: as §1

[3] = across fifty nine cell lines in nine cell panels, read-out: GI50 value range
[4] = against human tumor cell lines, read-out: Log10 GI50 mean graph midpoint (MG_MID) (converted)
[5] = Homo sapiens, read-out: Log10 GI50 (concentration in mol/L causing 50% growth inhibition) (converted)

Compound | GI50 (K-562) | GI50 (RPMI-8226) | GI50 (SR) | GI50 (HOP-62) | GI50 (NCI-H23) | GI50 (NCI-H460) | GI50 (HCC-2998) | GI50 (HCT-15) | GI50 (KM12) | GI50 (SNB-75) | GI50 (MDA-MB-435 [1]) | GI50 (SK-MEL-2) | GI50 (UACC-257) | GI50 (IGROV1) | GI50 (OVCAR-4) | GI50 (OVCAR-5) | GI50 (OVCAR-8) | GI50 (SK-OV-3) | GI50 (786-0) | GI50 (MCF7) | other results
COc1cc(-c2cc(/C=C/C(=O)c3ccc(F)c(F)c3)[nH]n2)cc(OC)c1OC [13e, (E)-1-(3,4-difluorophenyl)-3-(3-(3,4,5-trimethoxyphenyl)-1H-pyrazol-5-yl)prop-2-en-1-one] | 3310 nM | 1760 nM | 2920 nM | 4390 nM | 2600 nM | 2960 nM | 3690 nM | 3010 nM | 3060 nM | 2900 nM | 2880 nM | 2300 nM | 1750 nM | 3620 nM | 2200 nM | 4480 nM | 2880 nM | 3530 nM | 3350 nM | 3200 nM | GI50 (MDA-MB-231/ATCC): 1640 nM; GI50 (HS 578T): 3580 nM; GI50 (MDA-MB-435 [2]): 2220 nM; LC50 (Non-small cell lung; Homo sapiens): 87100 nM; Log10 GI50 (concentration in mol/L causing 50% growth inhibition) (Non-small cell lung): −5.54 mol/L; Log10 TGI (concentration in mol/L causing total growth inhibition (0% growth)) (Non-small cell lung): −4.75 mol/L; CC50 (Renal; Homo sapiens): 93300 nM; Log10 GI50 (concentration in mol/L causing 50% growth inhibition) (Renal): −5.56 mol/L; Log10 TGI (concentration in mol/L causing total growth inhibition (0% growth)) (Renal): −4.71 mol/L; GI50 (human tumor cell lines; [3]): 180 to 29200 nM; GI50 (human tumor cell lines; [4]): 2820 nM; cytotoxicity (human tumor cell lines): significant cytotoxicity; Log10 TGI mean graph midpoint (MG_MID) (human tumor cell lines; against human tumor cell lines): −4.74; LC50 (human tumor cell lines; against human tumor cell lines): 81300 nM
COc1cc(-c2cc(/C=C/C(=O)c3ccc4c(c3)OCO4)[nH]n2)cc(OC)c1OC [11e, (E)-1-(benzo[d][1,3]dioxol-5-yl)-3-(3-(3,4,5-trimethoxyphenyl)-1H-pyrazol-5-yl)prop-2-en-1-one] | 3200 nM | 510 nM | 550 nM | 2180 nM | 2020 nM | 2120 nM | 1950 nM | 2120 nM | 1760 nM | 2010 nM | 2390 nM | 10300 nM | 2460 nM | 5000 nM | 3800 nM | 3370 nM | 2850 nM | 5760 nM | 2330 nM | 1670 nM | GI50 (DU-145): 2720 nM; GI50 (MDA-MB-231/ATCC): 3500 nM; GI50 (HS 578T): 3710 nM; GI50 (MDA-MB-435 [2]): 1400 nM; LC50 (Non-small cell lung; Homo sapiens): 53700 nM; Log10 GI50 (concentration in mol/L causing 50% growth inhibition) (Non-small cell lung): −4.27 mol/L; Log10 TGI (concentration in mol/L causing total growth inhibition (0% growth)) (Non-small cell lung): −4.70 mol/L; CC50 (Renal; Homo sapiens): 42700 nM; Log10 GI50 (concentration in mol/L causing 50% growth inhibition) (Renal): −4.37 mol/L; Log10 TGI (concentration in mol/L causing total growth inhibition (0% growth)) (Renal): −4.94 mol/L; GI50 (human tumor cell lines; [3]): 180 to 29200 nM; GI50 (human tumor cell lines; [4]): 2690 nM; cytotoxicity (human tumor cell lines): significant cytotoxicity; Log10 TGI mean graph midpoint (MG_MID) (human tumor cell lines; against human tumor cell lines): −4.77; LC50 (human tumor cell lines; against human tumor cell lines): 61700 nM
COc1ccc(C(=O)/C=C/c2cc(-c3cc(OC)c(OC)c(OC)c3)n[nH]2)cc1OC [8e, (E)-1-(3,4-dimethoxyphenyl)-3-(3-(3,4,5-trimethoxyphenyl)-1H-pyrazol-5-yl)prop-2-en-1-one] | 1910 nM | 240 nM | 270 nM | 1440 nM | 2150 nM | 1410 nM | 2130 nM | 1270 nM | 1070 nM | 1230 nM | 1340 nM | 1850 nM | 1490 nM | 1800 nM | 2690 nM | 1590 nM | 1320 nM | 2790 nM | 1400 nM | 820 nM | GI50 (DU-145): 550 nM; GI50 (MDA-MB-231/ATCC): 1480 nM; GI50 (HS 578T): 2570 nM; GI50 (MDA-MB-435 [2]): 750 nM; GI50 (Non-small cell lung; [5]): 1230 nM; LC50 (Non-small cell lung; Homo sapiens): 6460 nM; Log10 TGI (concentration in mol/L causing total growth inhibition (0% growth)) (Non-small cell lung): −5.58 mol/L; GI50 (Renal; [5]): 1510 nM; CC50 (Renal; Homo sapiens): 6610 nM; Log10 TGI (concentration in mol/L causing total growth inhibition (0% growth)) (Renal): −5.51 mol/L; GI50 (human tumor cell lines; [3]): 180 to 29200 nM; GI50 (human tumor cell lines; [4]): 1350 nM; cytotoxicity (human tumor cell lines): significant cytotoxicity; Log10 TGI mean graph midpoint (MG_MID) (human tumor cell lines; against human tumor cell lines): −5.47; LC50 (human tumor cell lines; against human tumor cell lines): 10500 nM
